Test system: HIV (HTLV-III B strain)
Experiment: HIV replication inhibition assay (MTT, MT-4 cells)
Format: cell-based
Conditions: Human immunodeficiency virus 1, MT4, 96 h, four days culture, concentration at which cell cytotoxicity by virus is inhibited 50%
Method: HIV (HTLV-III B strain) persistent infected human T cell strain Molt-4 clone 8 was cultured in 10% Fetal Bovine Serum-containing RPMI-1640 medium and the supernatant was filtrated, then the virus titer was measured and the solution was stored at −80° C. Each anti-human immunodeficiency virus active substance was diluted with the above cultured medium to the designated concentration, which was dispensed into 96 well micro plate by 50 μL. Next, a MT-4 cell suspended liquid was dispensed by 100 μL (2.5×10^4 cells), then the above HIV-containing supernatant diluted with the above cultured medium was added thereto by 50 μL (60 pfu (plaque forming unit)).
The obtained mixture was cultured at 37° C. in CO2 incubator for four days, then 3-(4,5-dimehylthiazole-2-yl)-2,5-diphenyltetrazolynium bromide (MTT) 5 mg/mL in PBS was added to each well by 30 μL, followed by 1 hr-cultivation. In this step, as formazan was precipitated by reduction of MTT in living cells, the cell supernatant was removed from all well by 150 μL, then a 150 μL of solution (10% Triton X-100 and […]) was added thereto, followed by shaking with a plate mixer, to elute formazan. The formazan was measured with a microreader at OD: 560 nm and 690 nm (wavelength) and the result was compared with the reference. EC50 means the compound concentration at which cell cytotoxicity by virus is inhibited 50%.

## CC(=O)Nc1c(C)c(C(OC(C)(C)C)C(=O)O)c(-c2ccc(C)c(C)c2)c(C)c1-c1ccc(C)c(C)c1 (stereo not shown) [Compound I-6]
  EC50: 7.8 nM

— patent publication US9199959B2, “HIV replication inhibitor” (Shionogi & Co., Ltd., priority 2011, dated 2015)
